Reference: patent US20240417410A1, “TRICYCLIC COMPOUNDS FOR THE TREATMENT OF CANCER” (Hoffmann-La Roche Inc., priority 2023, published 2024)

Key:
[1] = tested on: AGS cells (KRAS G12D); assay: Cell viability assay (Cell Counting Kit-8, 3-day); format: cell-based, human; settings: Homo sapiens, 72 h, 72 hrs incubation
In short: (§1)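 Read-out is CCK-8 absorbance (OD450 minus OD650, 2 hrs after reagent), reflecting NADPH after 72 hrs of compound exposure in 0.5% DMSO. Seeding density was 5,000 cells/well for NCI-H358 and 2,000 for AGS and SW620. IC50 derived by 4-parameter sigmoidal fitting.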

[2] = tested on: NCI-H358 cells (KRAS G12C); assay: Cell viability assay (Cell Counting Kit-8, 3-day); format: cell-based, human; settings: Homo sapiens, NCI-H358, 72 h, NCI-H358, 72 hrs incubation
In short: as §1

[3] = tested on: SW620 cells (KRAS G12V); assay: Cell viability assay (Cell Counting Kit-8, 3-day); format: cell-based, human; settings: Homo sapiens, SW-620; SW620, 72 hrs incubation
In short: as §1

[4] = target: KRAS G12C-BRAF complex (Homo sapiens (Human), UniProt P01116+P62937, G12C); assay: KRAS-BRAF with CYPA (500 nM) interaction assay (TR-FRET, Example 136); format: biochemical; settings: KRAS G12C-BRAF disruption
Chain of KRAS G12C-BRAF complex (P01116-2 other isoform, or with tags, fused parts or gaps G12C): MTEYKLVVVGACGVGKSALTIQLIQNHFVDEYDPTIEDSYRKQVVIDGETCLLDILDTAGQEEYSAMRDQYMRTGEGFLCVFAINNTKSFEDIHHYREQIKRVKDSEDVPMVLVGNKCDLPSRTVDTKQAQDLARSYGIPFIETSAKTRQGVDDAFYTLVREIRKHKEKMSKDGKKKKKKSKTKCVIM
Chain of KRAS G12C-BRAF complex (P62937 whole entry): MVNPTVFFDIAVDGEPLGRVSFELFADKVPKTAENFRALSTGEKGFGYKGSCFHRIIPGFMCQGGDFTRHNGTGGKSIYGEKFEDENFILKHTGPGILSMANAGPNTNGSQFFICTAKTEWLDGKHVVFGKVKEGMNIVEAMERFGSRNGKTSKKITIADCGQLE

[5] = tested on: phosphorylation of ERK, KRAS G12C in NCI-H358 cells; assay: pERK inhibition assay; format: cell-based; settings: Homo sapiens, NCI-H358, 4 h
In short: (§2)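 Cells in RPMI-1640 with 10% FBS were plated overnight (30,000/well H358, 20,000 AGS, 30,000 SW620) and treated 4 h with compounds at 0.5% DMSO. After formaldehyde fixation and methanol permeabilization, pERK was detected by in-cell ELISA with HRP secondary and TMB (OD450); IC50 from 4-parameter fit.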

[6] = tested on: phosphorylation of ERK, KRAS G12D in AGS cells; assay: pERK inhibition assay; format: cell-based; settings: Homo sapiens, AGS, 4 h
In short: as §2

[7] = tested on: phosphorylation of ERK, KRAS G12V in SW620; assay: pERK inhibition assay; format: cell-based; settings: Homo sapiens, SW-620, 4 h, SW620 cells
In short: as §2

Structure (SMILES) | IC50 [1] | IC50 [2] | IC50 [3] | IC50 [4] | IC50 [5] | IC50 [6] | IC50 [7]
CO[C@@H](C)c1ncc(N2CCN(C)CC2)cc1-c1c2c3cc(cc4c3n1CCO4)-c1csc(n1)C[C@H](NC(=O)C1CC1c1ccc(F)cc1)C(=O)N1CCC[C@H](N1)C(=O)OCC(C)(C)C2 (stereo partly drawn) [Example 59, 2-(4-fluorophenyl)-N-[(7S,13S)-(20M)-20-[2-[(1S)-1-methoxyethyl]-5-(4-methylpiperazin-1-yl)-3-pyridyl]-17,17-dimethyl-8,14-dioxo-15,24-dioxa-4-thia-9,21,30,31-tetrazahexacyclo[23.3.1.1^2,5.1^9,13.0^19,27.0^21,26]hentriaconta-1 (29),2,5 (31),19,25,27-hexaen-7-yl]cyclopropanecarboxamide] | 87.2 nM | 33.7 nM | 7.4 nM | 16.7 nM | 8.8 nM | 21.3 nM | 3 nM
CO[C@@H](C)c1ncc(N2CCN(C)CC2)cc1-c1c2c3cc(cc4c3n1CCC4)-c1csc(n1)C[C@H](NC(=O)[C@H]1C[C@@H]1c1cncnc1)C(=O)N1CCC[C@H](N1)C(=O)OCC(C)(C)C2 (atropisomer, axis not shown; (M)) [Example 47, (1S,2S)-N-[(7S,13S)-(20M)-20-[2-[(1S)-1-methoxyethyl]-5-(4-methylpiperazin-1-yl)-3-pyridyl]-17,17-dimethyl-8,14-dioxo-15-oxa-4-thia-9,21,30,31-tetrazahexacyclo[23.3.1.1^2,5.1^9,13.0^19,27.0^21,26]hentriaconta-1 (28),2,5 (31), 19,25 (29),26-hexaen-7-yl]-2-pyrimidin-5-yl-cyclopropanecarboxamide] | 10.2 nM | 2.5 nM | 0.9 nM | 21.2 nM | 1.2 nM | 4.8 nM | 1.4 nM
CO[C@@H](C)c1ncc(N2CCN(CC(F)(F)F)CC2)cc1-c1c2c3cc(cc4c3n1CCO4)-c1csc(n1)C[C@H](NC(=O)[C@H]1[C@H](C)[C@@H]1C)C(=O)N1CCC[C@H](N1)C(=O)OCC(C)(C)C2 (atropisomer, axis not shown; (M)) [Example 85, (1r,2S,3R)-N-[(7S,13S)-(20M)-20-[2-[(1S)-1-methoxyethyl]-5-[4-(2,2,2-trifluoroethyl)piperazin-1-yl]-3-pyridyl]-17,17-dimethyl-8,14-dioxo-15,24-dioxa-4-thia-9,21,30,31-tetrazahexacyclo[23.3.1.1^2,5.1^9,13.0^19,27.0^21,26]hentriaconta-1 (28),2,5 (31),19,25 (29),26-hexaen-7-yl]-2,3-dimethyl-cyclopropanecarboxamide] | 13 nM | 9 nM | 1 nM | 18.8 nM | 1.7 nM | 5.6 nM | 0.6 nM
CO[C@@H](C)c1ncc(N2CCN(CC(F)(F)F)CC2)cc1-c1c2c3cc(cc4c3n1CCO4)-c1csc(n1)C[C@H](NC(=O)[C@H]1[C@@H]3COC[C@@H]31)C(=O)N1CCC[C@H](N1)C(=O)OCC(C)(C)C2 (atropisomer, axis not shown; (M)) [Example 12, (1S,5R,6r)-N-[(7S,13S)-(20M)-20-[2-[(1S)-1-methoxyethyl]-5-[4-(2,2,2-trifluoroethyl)piperazin-1-yl]-3-pyridyl]-17,17-dimethyl-8,14-dioxo-15,24-dioxa-4-thia-9,21,30,31-tetrazahexacyclo[23.3.1.1^2,5.1^9,13.0^19,27.0^21,26]hentriaconta-1 (28),2,5 (31),19,25 (29),26-hexaen-7-yl]-3-oxabicyclo[3.1.0]hexane-6-carboxamide] | 25 nM | 12.5 nM | 2 nM | 12 nM | 3.8 nM | 2.2 nM | 1.2 nM
CO[C@@H](C)c1ncc(N2CCN(C)CC2)cc1-c1c2c3cc(cc4c3n1CCCO4)-c1csc(n1)C[C@H](NC(=O)[C@H]1[C@H](C)[C@@H]1C)C(=O)N1CCC[C@H](N1)C(=O)OCC(C)(C)C2 (atropisomer, axis not shown; (M)) [Example 100, (1r,2R,3S)-N-[(7S,13S)-(20M)-20-[2-[(1S)-1-methoxyethyl]-5-(4-methylpiperazin-1-yl)-3-pyridyl]-17,17-dimethyl-8,14-dioxo-15,25-dioxa-4-thia-9,21,31,32-tetrazahexacyclo[24.3.1.1^2,5.1^9,13.0^19,28.0^21,27]dotriaconta-1 (29),2,5 (32),19,26 (30),27-hexaen-7-yl]-2,3-dimethyl-cyclopropanecarboxamide] | 8.2 nM | 2.7 nM | 0.7 nM | 33.1 nM | 1 nM | 4.1 nM | 0.7 nM
CO[C@@H](C)c1ncc(N2CCN(CC(F)(F)F)CC2)cc1-c1c2c3cc(cc4c3n1CCO4)-c1csc(n1)C[C@H](NC(=O)[C@H]1C[C@@H]1c1cccnc1)C(=O)N1CCC[C@H](N1)C(=O)OCC(C)(C)C2 (atropisomer, axis not shown; (M)) [Example 98, (1S,2S)-N-[(7S,13S)-(20M)-20-[2-[(1S)-1-methoxyethyl]-5-[4-(2,2,2-trifluoroethyl)piperazin-1-yl]-3-pyridyl]-17,17-dimethyl-8,14-dioxo-15,24-dioxa-4-thia-9,21,30,31-2,5 9,13 19,27 21,26]hentriaconta-1 (28),2,5 (31),19,25 (29),26-hexaen-tetrazahexacyclo[23.3.1.1″>0.1″>7-yl]-2-(3-pyridyl)cyclopropanecarboxamide] | 8.1 nM | 4 nM | 0.6 nM | 11.1 nM | 0.9 nM | 4.6 nM | 0.5 nM
CO[C@@H](C)c1ncc(N2CCN3CCOC[C@@H]3C2)cc1-c1c2c3cc(cc4c3n1CCC4)-c1csc(n1)C[C@H](NC(=O)[C@H]1[C@@H]3COC[C@@H]31)C(=O)N1CCC[C@H](N1)C(=O)OCC(C)(C)C2 (atropisomer, axis not shown; (M)) [Example 40, (1S,5R,6r)-N-[(7S,13S)-(20M)-20-[5-[(9αS)-3,4,6,7,9,9a-hexahydro-1H-pyrazino[2,1-c][1,4]oxazin-8-yl]-2-[(1S)-1-methoxyethyl]-3-pyridyl]-17,17-dimethyl-8,14-dioxo-15-oxa-4-thia-9,21,30,31-tetrazahexacyclo[23.3.1.1^2,5.1^9,13.0^19,27.0^21,26]hentriaconta-1 (28),2,5 (31),19,25 (29),26-hexaen-7-yl]-3-oxabicyclo[3.1.0]hexane-6-carboxamide] | 11.8 nM | 3 nM | 0.8 nM | 13 nM | 0.6 nM | 5.6 nM | 0.4 nM
CO[C@@H](C)c1ncc(N2CCN(CCCO)CC2)cc1-c1c2c3cc(cc4c3n1CCC4)-c1csc(n1)C[C@H](NC(=O)[C@H]1[C@H](C)[C@@H]1C)C(=O)N1CCC[C@H](N1)C(=O)OCC(C)(C)C2 (atropisomer, axis not shown; (M)) [Example 111, (1r,2R,3S)-N-[(7S,13S)-(20M)-20-[5-[4-(3-hydroxypropyl)piperazin-1-yl]-2-[(1S)-1-methoxyethyl]-3-pyridyl]-17,17-dimethyl-8,14-dioxo-15-oxa-4-thia-9,21,30,31-tetrazahexacyclo[23.3.1.1^2,5.1^9,13.0^19,27.0^21,26]hentriaconta-1 (28),2,5 (31), 19,25 (29),26-hexaen-7-yl]-2,3-dimethyl-cyclopropanecarboxamide] | 0.8 nM | 1 nM | 0.2 nM | 4.7 nM | 0.6 nM | 2 nM | 0.4 nM
